In experiment [1] the target is Glutamate receptor ionotropic, kainate 2 (Rattus norvegicus, UniProt P42260). Briefly: Displacement of [3H]kainate from rat GLUK6 expressed in HEK293 cells. The class given is cell-based. For orientation: Loss of bound radioactivity is the signal in a displacement assay; it reports binding, not function.
Experiment [2] has as its target Glutamate receptor ionotropic, AMPA (Rattus norvegicus, UniProt P19490+P19491+P19492+P19493).
Description: Antagonist activity against AMPA receptor expressed in motoneurones by inhibition of fDR-VRP in the neonatal rat spinal cord
Experiment [3] has as its target Glutamate NMDA receptor (Rattus norvegicus) (UniProt P35439+Q00959+Q00960+Q00961+Q62645+Q8VHN2+Q9R1M7). Briefly: Activity against NMDA-induced depolarization of neonatal rat motoneurons expressing NMDA receptor at 50 uM. The class given is protein-complex assay.
The next experiment has as its target Glutamate receptor 4 (Homo sapiens, UniProt P48058). Description: Inhibition of glutamate-induced calcium influx in HEK293 cells expressing human GLUA4 up to 100 uM. The class given is functional, cell-based.
Experiment [4] is described as follows: Inhibition of glutamate-induced calcium influx in HEK293 cells expressing human GLUK5/GLUK6 by FLIPR assay. The class given is functional, cell-based.
Experiment [5] has as its target T1, Glutamate receptor 1 (Homo sapiens, UniProt P42261). Briefly: Inhibition of glutamate-induced calcium influx in HEK293 cells expressing human GLUA1 up to 100 uM. The class given is functional, cell-based.
Experiment [6] concerns the target Metabotropic glutamate receptor 1 (Rattus norvegicus) (UniProt P23385). Description: Activity against DHPG-induced depolarization of neonatal rat motoneurons expressing mGlu1 receptor at 50 uM.
Experiment [7] concerns the target Metabotropic glutamate receptor 5 (Rattus norvegicus) (UniProt P31424). Description: Activity against DHPG-induced depolarization of neonatal rat motoneurons expressing mGlu5 receptor at 50 uM.
Experiment [8] addresses Glutamate receptor 2 (Homo sapiens) (UniProt P42262). Description: Inhibition of glutamate-induced calcium influx in HEK293 cells expressing human GLUA2 up to 100 uM. The class given is functional, cell-based.
Experiment [9] in a line: Inhibition of glutamate-induced calcium influx in HEK293 cells expressing human GLUK5/GLUK2 by FLIPR assay. The class given is functional, cell-based.
The target of experiment [10] is Glutamate receptor ionotropic, kainate 1 (Homo sapiens, UniProt P39086). Briefly: Inhibition of glutamate-induced calcium influx in HEK293 cells expressing human GLUK5 by FLIPR assay. The class given is functional, cell-based.
Experiment [11] can be described thus: Induction of calcium influx in HEK293 cells expressing human GLUK5/GLUK2 by FLIPR assay.
The nature of experiment [12]: Induction of calcium influx in HEK293 cells expressing human GLUK5/GLUK6 by FLIPR assay.
The target of experiment [13] is T1, Glutamate receptor 1. Description: Inhibition of glutamate-induced calcium influx in HEK293 cells expressing human GLUA1. The class given is functional, cell-based.

Active and inactive are the calls of the source. The calls are words filed in the database; no cut-off is given here.

Chain of Glutamate receptor ionotropic, kainate 2 (P42260 whole entry): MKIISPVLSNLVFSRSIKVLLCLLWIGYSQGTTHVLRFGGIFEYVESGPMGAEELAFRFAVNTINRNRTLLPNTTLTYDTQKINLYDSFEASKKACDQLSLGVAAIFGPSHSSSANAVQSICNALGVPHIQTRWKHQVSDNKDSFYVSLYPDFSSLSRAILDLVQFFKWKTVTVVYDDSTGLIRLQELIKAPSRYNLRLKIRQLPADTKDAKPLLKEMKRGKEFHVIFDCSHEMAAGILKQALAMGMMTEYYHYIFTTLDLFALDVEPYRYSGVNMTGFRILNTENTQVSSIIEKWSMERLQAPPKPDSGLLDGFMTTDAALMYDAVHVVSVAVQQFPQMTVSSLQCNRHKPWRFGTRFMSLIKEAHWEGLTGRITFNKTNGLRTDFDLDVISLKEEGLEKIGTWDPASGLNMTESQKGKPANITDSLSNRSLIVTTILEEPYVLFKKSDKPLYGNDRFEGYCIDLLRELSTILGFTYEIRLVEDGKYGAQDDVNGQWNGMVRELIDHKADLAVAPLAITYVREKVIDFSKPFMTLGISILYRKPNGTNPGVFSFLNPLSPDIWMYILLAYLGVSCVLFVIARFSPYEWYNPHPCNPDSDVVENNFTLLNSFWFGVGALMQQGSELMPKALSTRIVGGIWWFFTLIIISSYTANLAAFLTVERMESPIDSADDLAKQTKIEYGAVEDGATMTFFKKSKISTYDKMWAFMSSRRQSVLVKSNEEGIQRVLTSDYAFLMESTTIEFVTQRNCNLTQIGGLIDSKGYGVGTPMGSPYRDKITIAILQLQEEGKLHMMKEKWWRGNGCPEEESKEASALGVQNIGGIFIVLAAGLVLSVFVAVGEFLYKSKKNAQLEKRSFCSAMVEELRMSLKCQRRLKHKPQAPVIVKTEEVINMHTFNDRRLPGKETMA
T1 sequence (P42261 whole entry): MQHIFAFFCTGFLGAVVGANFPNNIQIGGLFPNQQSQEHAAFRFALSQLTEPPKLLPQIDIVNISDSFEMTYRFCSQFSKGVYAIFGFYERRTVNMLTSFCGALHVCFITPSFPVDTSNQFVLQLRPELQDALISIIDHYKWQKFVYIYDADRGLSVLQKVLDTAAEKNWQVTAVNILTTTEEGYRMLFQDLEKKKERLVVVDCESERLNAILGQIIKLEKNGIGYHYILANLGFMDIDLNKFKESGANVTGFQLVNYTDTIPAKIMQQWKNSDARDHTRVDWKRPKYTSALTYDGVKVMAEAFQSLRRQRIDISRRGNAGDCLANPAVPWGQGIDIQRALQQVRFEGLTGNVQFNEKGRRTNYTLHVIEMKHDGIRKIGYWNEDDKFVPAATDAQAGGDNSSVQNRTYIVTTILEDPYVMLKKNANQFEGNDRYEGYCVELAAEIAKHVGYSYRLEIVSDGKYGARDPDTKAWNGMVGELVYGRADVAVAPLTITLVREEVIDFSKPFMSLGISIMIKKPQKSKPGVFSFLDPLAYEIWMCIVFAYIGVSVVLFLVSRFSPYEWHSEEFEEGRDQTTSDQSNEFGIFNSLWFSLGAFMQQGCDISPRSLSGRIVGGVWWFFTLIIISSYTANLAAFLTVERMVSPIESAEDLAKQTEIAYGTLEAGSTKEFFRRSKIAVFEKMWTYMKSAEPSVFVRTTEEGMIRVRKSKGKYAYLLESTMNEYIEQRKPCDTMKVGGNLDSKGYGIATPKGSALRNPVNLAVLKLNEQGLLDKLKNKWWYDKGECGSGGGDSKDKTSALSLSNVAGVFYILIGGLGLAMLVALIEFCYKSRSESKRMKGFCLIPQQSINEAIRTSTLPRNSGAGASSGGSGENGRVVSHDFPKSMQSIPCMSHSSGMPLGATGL
Chain of Glutamate receptor 2 (Homo sapiens) (P42262 whole entry): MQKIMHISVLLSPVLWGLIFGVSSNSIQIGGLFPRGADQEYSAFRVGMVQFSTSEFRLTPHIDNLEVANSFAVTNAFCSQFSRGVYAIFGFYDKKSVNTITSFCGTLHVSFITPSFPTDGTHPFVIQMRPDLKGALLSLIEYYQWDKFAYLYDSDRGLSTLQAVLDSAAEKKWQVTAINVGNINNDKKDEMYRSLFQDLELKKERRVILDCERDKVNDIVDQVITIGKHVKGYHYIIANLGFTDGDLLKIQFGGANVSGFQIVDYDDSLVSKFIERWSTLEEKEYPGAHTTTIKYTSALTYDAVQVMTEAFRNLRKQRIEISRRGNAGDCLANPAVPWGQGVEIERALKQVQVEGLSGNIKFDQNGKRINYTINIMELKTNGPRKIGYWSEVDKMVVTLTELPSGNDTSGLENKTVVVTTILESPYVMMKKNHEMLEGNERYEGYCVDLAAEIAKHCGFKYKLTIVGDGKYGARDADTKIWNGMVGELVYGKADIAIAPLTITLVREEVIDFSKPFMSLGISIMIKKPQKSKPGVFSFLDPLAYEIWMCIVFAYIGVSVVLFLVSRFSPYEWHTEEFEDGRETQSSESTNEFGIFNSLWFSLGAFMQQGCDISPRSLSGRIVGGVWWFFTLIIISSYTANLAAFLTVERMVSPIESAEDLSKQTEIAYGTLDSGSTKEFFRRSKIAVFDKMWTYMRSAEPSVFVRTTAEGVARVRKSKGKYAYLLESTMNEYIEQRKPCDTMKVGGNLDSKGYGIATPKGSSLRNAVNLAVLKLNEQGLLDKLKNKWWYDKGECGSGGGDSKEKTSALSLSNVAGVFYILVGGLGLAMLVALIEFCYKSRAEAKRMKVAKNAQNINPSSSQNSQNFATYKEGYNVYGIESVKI
Chain of Metabotropic glutamate receptor 1 (Rattus norvegicus) (P23385 19-1199 limits assumed): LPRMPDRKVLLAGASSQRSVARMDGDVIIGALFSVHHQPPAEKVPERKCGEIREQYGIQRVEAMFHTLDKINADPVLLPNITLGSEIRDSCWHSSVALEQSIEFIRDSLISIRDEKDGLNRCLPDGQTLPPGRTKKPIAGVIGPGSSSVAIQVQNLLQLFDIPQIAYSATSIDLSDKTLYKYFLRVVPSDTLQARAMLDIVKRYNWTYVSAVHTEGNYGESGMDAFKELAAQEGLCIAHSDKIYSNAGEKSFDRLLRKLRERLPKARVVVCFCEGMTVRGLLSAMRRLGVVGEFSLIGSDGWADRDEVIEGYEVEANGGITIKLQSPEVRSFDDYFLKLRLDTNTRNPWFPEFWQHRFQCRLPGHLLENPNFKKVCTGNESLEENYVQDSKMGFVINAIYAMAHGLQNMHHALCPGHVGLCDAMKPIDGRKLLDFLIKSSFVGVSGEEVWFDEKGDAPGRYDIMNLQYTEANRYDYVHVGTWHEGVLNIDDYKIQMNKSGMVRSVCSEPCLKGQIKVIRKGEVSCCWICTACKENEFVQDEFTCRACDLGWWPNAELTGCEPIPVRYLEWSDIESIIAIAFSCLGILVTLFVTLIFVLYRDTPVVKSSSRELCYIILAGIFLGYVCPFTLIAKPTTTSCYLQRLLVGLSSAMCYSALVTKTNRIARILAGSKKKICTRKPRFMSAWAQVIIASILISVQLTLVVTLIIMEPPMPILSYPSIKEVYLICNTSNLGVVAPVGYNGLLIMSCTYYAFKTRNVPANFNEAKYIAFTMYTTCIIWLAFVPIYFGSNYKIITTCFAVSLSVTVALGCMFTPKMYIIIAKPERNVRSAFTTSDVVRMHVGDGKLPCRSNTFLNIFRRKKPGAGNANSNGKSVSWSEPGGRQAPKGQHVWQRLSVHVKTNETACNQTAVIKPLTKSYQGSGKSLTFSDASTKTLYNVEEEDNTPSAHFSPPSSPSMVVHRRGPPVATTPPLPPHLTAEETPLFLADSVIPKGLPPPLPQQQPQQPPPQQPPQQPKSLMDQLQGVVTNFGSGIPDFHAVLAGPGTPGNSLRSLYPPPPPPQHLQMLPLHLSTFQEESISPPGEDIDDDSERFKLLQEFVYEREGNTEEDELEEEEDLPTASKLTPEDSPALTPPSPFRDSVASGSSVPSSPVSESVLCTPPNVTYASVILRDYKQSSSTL
Chain of Metabotropic glutamate receptor 5 (Rattus norvegicus) (P31424 21-1203 limits assumed): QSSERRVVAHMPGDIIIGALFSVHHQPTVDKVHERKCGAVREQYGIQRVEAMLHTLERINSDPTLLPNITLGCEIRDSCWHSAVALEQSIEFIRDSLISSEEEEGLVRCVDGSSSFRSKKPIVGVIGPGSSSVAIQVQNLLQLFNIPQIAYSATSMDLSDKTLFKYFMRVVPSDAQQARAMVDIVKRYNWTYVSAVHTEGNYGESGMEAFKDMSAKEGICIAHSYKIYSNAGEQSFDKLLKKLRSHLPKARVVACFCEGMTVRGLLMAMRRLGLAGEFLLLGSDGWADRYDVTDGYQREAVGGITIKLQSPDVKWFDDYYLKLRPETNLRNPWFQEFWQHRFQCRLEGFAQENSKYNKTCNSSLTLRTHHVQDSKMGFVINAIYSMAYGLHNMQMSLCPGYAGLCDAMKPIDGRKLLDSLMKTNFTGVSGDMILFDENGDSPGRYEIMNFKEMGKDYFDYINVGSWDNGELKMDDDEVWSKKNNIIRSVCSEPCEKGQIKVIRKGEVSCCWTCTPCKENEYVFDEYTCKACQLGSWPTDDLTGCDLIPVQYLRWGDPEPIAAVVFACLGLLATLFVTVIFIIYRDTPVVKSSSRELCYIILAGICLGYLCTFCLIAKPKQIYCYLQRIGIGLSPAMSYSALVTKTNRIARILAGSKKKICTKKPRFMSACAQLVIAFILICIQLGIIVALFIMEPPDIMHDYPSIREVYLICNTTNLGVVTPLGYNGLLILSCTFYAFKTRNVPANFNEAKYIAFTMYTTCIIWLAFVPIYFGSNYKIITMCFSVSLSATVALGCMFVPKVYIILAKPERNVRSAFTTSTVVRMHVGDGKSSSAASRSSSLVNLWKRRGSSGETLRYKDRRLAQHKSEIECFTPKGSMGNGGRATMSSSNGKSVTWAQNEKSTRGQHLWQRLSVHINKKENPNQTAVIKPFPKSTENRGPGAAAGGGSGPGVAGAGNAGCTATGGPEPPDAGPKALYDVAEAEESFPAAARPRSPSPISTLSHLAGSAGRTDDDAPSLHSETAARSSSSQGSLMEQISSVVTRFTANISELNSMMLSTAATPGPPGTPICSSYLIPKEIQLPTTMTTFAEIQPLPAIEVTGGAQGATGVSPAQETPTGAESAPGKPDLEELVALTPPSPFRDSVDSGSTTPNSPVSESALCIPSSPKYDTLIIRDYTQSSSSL

The term Ki denotes the equilibrium dissociation constant of an inhibitor or competing ligand from its target. Read a low Ki as higher affinity. For the compound `N[C@@H](Cn1ccc(=O)n(CCC(=O)O)c1=O)C(=O)O`, the Ki in [1] is more than 1000 µM.
As a reminder, the IC50 is the concentration that gives 50% inhibition. As to `N[C@@H](Cn1ccc(=O)n(Cc2ccccc2P(=O)(O)O)c1=O)C(=O)O`, the half-inhibitory concentration (IC50) in experiment [2] is more than 100 µM.
Turning to `N[C@@H](Cn1ccc(=O)n(Cc2ccoc2C(=O)O)c1=O)C(=O)O`, the Ki in experiment [1] is more than 100 µM. Moreover, in experiment [2], half-maximal inhibition (IC50) was put at 11.7 µM.
The matching figures for `NC(Cn1ccc(=O)n(Cc2ccc(P(=O)(O)O)cc2)c1=O)C(=O)O` (racemic): more than 1000 µM and 107 µM.
On to `N[C@@H](Cn1ccc(=O)n(Cc2ccc(S(=O)(=O)O)cc2)c1=O)C(=O)O`, for which the inhibitory constant (Ki) in [1] is more than 100 µM. Also, in experiment [2], half-maximal inhibition (IC50) required 49 µM.
One may read the Kd as the constant that tells how readily two partners part at equilibrium. A higher Kd goes with a looser complex. Take `N[C@@H](Cn1ccc(=O)n(Cc2ccsc2C(=O)O)c1=O)C(=O)O`: the inhibition constant Ki in [1] was more than 100 µM. The result (in experiment [3]; on Glutamate receptor 4; on Glutamate receptor 1 [5]; in [6]; in [7]; in [8]) was inactive. In addition, the IC50 in experiment [4] was found to be 0.62 µM; in experiment [2], 31.2 µM; in experiment [9] it was 1.21 µM; in experiment [10], 0.68 µM. In [2], this compound showed a Kd of 71.4 µM.
`N[C@@H](Cn1ccc(=O)n(CCc2nnn[nH]2)c1=O)C(=O)O` returned an inhibitory constant (Ki) in experiment [1] of more than 100 µM. In experiment [2], this compound had an IC50 of 6.87 µM.
`N[C@@H](Cn1cc(I)c(=O)n(CCc2nn[nH]n2)c1=O)C(=O)O`: the midpoint of inhibition in experiment [2], the IC50, lay at 3.73 µM.
The EC50 is the concentration giving half of the maximal effect. `N[C@@H](CCC(=O)O)C(=O)O` [GLUTAMIC ACID]: the 50% effective concentration (EC50) was 35 µM in experiment [11] and 27 µM in [12].
`N[C@@H](Cn1ccc(=O)n(Cc2nn[nH]n2)c1=O)C(=O)O`: the inhibition constant Ki in experiment [1] is more than 100 µM. Further, in [2], the 50% inhibitory concentration (IC50) was determined as 45.4 µM.
`N[C@@H](Cn1ccc(=O)n(Cc2ccc(-c3nn[nH]n3)cc2)c1=O)C(=O)O` had a half-inhibitory concentration (IC50) in experiment [2] of 50.9 µM.
On to `NS(=O)(=O)c1cccc2c1c([N+](=O)[O-])cc1nc(O)c(O)nc12` [NBQX], for which the 50% inhibitory concentration (IC50) in experiment [4] was determined as 28 µM; on Glutamate receptor 1 [13], 6 µM; in experiment [9], 50 µM.
As for `N[C@H](Cn1ccc(=O)n(Cc2ccsc2C(=O)O)c1=O)C(=O)O`, the Ki in [1] is more than 1000 µM. The compound also registered a concentration for half-maximal inhibition (IC50) in experiment [2] of more than 100 µM.

The values are drawn from ChEMBL document CHEMBL1146072, “Structure-activity relationship studies on N3-substituted willardiine derivatives acting as AMPA or kainate receptor antagonists” (J Med Chem, 2006).
